PubChem BioAssay AID449760 (The Scripps Research Institute Molecular Screening Center, 2010)
Several values for one entry are separate records, joined by “and”; a condition that tells them apart may be missing. Equal entries are not always repeated. Activity calls are given as the source filed them. How the calls were made is not given here.

What follows are molecules tested on NIH 3T3 STAT1-luciferase reporter, IFNg-stimulated, luminescence (assay: STAT1 reporter activators, provider retest, late-stage follow-up, cell-based, luminescence, NIH 3T3, assay provider (AID 449760)). Settings: at 10 µM; stronger effect = higher value.

Row | SMILES | fold change vs IFNg
1 | CC(=O)NC(=S)Nc1sc2c(c1C#N)CCCCC2 | 0.45 (inactive)
2 | Cc1nnc(SCC(=O)Nc2ccc(-c3nc4ccccc4s3)cc2)s1 | 1 (inactive)
3 | COc1ccc2[nH]c3c(c2c1)CCn1c-3nc2ccccc2c1=O | 0.94 (inactive)
4 | CCN(CC)c1ccc2cc(C(=O)Nc3ccccn3)c(=O)oc2c1 | 0.41 (inactive)
5 | CCOC(=O)/C(C#N)=C/c1cc(C)n(-c2ccccc2)c1C | 0.028 (inactive)
6 | N#C/C(=C\c1ccc(N2CCOCC2)o1)c1nc2ccccc2[nH]1 | 0.94 (inactive)
7 | COc1ccc(-c2cc(C)nc3c(-c4ccccc4)cnn23)cc1 | 0.36 (inactive) and 0.19 (inactive)
8 | O=C(Nc1nc2ccccc2s1)c1cc2ccccc2s1 | 1.02 (inactive)
9 | Cc1ccc(C(=O)Nc2nc3ccccc3s2)s1 | 1.22 (inactive)
10 | O=C(/C=C/Nc1ccccc1F)c1ccc(Br)cc1 | 0.87 (inactive)
11 | Cc1cc(-c2ccc(F)cc2)n2ncc(-c3ccccc3)c2n1 | 0.09 (inactive)
12 | COc1ccc(-c2csc(N3C(=O)CNC3=S)n2)cc1 | 1.19 (inactive)
